BindingDB's records for doi:10.1021/cb4002602 (National University of Singapore, 2013)

Target: Protein disulfide-isomerase (Bos taurus) (UniProt P05307)
Test: The assay was carried out in 384-well plates according to literature procedures [46]. Each well contained 100mM sodium phosphate and 0.2mM EDTA pH 7.0. 10ng PDI was pre-incubated with various concentration of probes (4% DMSO) in 20uL buffer for 30 min at 37 degrees Celsius, followed by the addition of insulin (0.16mM final concentration) and DDT (1mM

Protein disulfide-isomerase (Bos taurus), sequence (P05307 whole entry, looked up): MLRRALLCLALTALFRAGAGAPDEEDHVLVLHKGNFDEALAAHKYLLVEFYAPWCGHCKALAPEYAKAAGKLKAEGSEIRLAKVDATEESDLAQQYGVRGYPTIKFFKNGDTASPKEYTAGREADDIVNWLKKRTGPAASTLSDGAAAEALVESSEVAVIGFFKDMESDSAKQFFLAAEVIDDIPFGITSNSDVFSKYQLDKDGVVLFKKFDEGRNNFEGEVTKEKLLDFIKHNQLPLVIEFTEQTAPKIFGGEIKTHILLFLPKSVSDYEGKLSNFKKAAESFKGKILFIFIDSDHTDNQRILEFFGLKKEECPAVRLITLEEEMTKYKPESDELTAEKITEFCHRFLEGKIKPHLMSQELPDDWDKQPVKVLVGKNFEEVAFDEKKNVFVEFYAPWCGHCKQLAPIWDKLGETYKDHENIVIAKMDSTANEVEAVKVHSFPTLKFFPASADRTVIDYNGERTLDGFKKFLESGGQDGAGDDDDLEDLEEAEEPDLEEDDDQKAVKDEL

Row | IC50 [µM] | SMILES
1 | 1.4 | C#CCNC(=O)[C@H](Cc1ccc(OS(=O)(=O)C=C)cc1)NC(=O)c1cc(F)c(F)c(OC)c1F [PDI inhibitor P22]
2 | 2.1 | C#CCNC(=O)[C@H](Cc1ccc(OS(=O)(=O)C=C)cc1)NC(=O)C1(c2ccccc2)CC1 [PDI inhibitor P10]
3 | 3.2 | C#CCNC(=O)[C@H](Cc1ccc(OS(=O)(=O)C=C)cc1)NC(=O)C(C)(C)CC [PDI inhibitor P12]
4 | 2.7 | C#CCNC(=O)[C@H](Cc1ccc(OS(=O)(=O)C=C)cc1)NC(=O)c1ccc2ccccc2c1 [PDI inhibitor P8]
5 | 1.1 | C=CS(=O)(=O)Oc1ccc(C[C@H](NC(=O)[C@H](Cc2ccccc2)NC(=O)OC(C)(C)C)C(=O)NCCNC(=O)CCCC[C@@H]2SCC3NC(=O)NC32)cc1 (stereo partly drawn) [PDI inhibitor P11]
6 | 5.7 | C#CCNC(=O)[C@H](Cc1ccc(OS(=O)(=O)C=C)cc1)NC(=O)C(Cl)CC (stereo partly drawn) [PDI inhibitor P20]
7 | 1.1 | C#CCNC(=O)[C@H](Cc1ccc(OS(=O)(=O)C=C)cc1)NC(=O)c1ccc(CC)cc1 [PDI inhibitor P15]
8 | 1.7 | C#CCCNC(=O)[C@H](Cc1ccc(OS(=O)(=O)C=C)cc1)NC(=O)[C@H](Cc1ccccc1)NC(=O)OC(C)(C)C [PDI inhibitor P1]
9 | 3.3 | C#CCNC(=O)[C@H](Cc1ccc(OS(=O)(=O)C=C)cc1)NC(=O)CCc1ccc(OC)cc1 [PDI inhibitor P17]
10 | 74 | COC(=O)C1(C)c2[nH]c3ccccc3c2CCN1C(=O)CCl (stereo not drawn) [16F16]
11 | 2.3 | C#CCNC(=O)[C@H](Cc1ccc(OS(=O)(=O)C=C)cc1)NC(=O)C1(C)CCCCC1 [PDI inhibitor P16]
12 | 1.8 | C#CCNC(=O)[C@H](Cc1ccc(OS(=O)(=O)C=C)cc1)NC(=O)C(=O)c1ccccc1 [PDI inhibitor P23]
13 | 5.3 | C#CCNC(=O)[C@H](Cc1ccc(OS(=O)(=O)C=C)cc1)NC(=O)c1ccc(OC)cc1 [PDI inhibitor P9]
14 | 1.9 | C#CCNC(=O)[C@H](Cc1ccc(OS(=O)(=O)C=C)cc1)NC(=O)[C@H](Cc1ccccc1)NC(=O)OC(C)(C)C [PDI inhibitor P6]
15 | 1 | C#CCNC(=O)[C@H](Cc1ccc(OS(=O)(=O)C=C)cc1)NC(=O)c1ccc(F)c(C(F)(F)F)c1 [PDI inhibitor P14]
16 | 2.8 | C#CCNC(=O)[C@H](Cc1ccc(OS(=O)(=O)C=C)cc1)NC(=O)c1ccc(F)cc1Cl [PDI inhibitor P18]
17 | 2.2 | C#CCNC(=O)[C@H](Cc1ccc(OS(=O)(=O)C=C)cc1)NC(=O)CCc1ccccc1 [PDI inhibitor P24]
18 | 2.5 | C#CCNC(=O)[C@H](Cc1ccc(OS(=O)(=O)C=C)cc1)NC(=O)c1ccc(C)c(F)c1 [PDI inhibitor P21]
19 | 2.5 | C#CCNC(=O)[C@H](Cc1ccc(OS(=O)(=O)C=C)cc1)NC(=O)c1c(F)c(F)c(F)c(F)c1F [PDI inhibitor P13]
20 | 2.5 | C#CCNC(=O)[C@H](Cc1ccc(OS(=O)(=O)C=C)cc1)NC(=O)C1(C)CC1(Cl)Cl (stereo partly drawn) [PDI inhibitor P19]
21 | 1.8 | C#CCCNC(=O)[C@H](Cc1cc(=O)oc2cc(OS(=O)(=O)C=C)ccc12)NC(=O)[C@H](Cc1ccccc1)NC(=O)OC(C)(C)C [PDI inhibitor P2]
22 | 3.1 | C#CCNC(=O)[C@H](Cc1ccc(OS(=O)(=O)C=C)cc1)NC(=O)c1ccc(C)cc1C [PDI inhibitor P7]
23 | 3.4 | C#CCNC(=O)[C@H](Cc1ccc(OS(=O)(=O)C=C)cc1)NC(=O)c1cc(OC)c(OC)cc1Br [PDI inhibitor P25]
